Experimental data reported in patent US9388140B2, “Substituted benzimidazoles” (priority 2011, dated 2016).

Molecular target: human kinase Mps-1 (Homo sapiens (Human), UniProt P33981)
Assay: Mps-1 kinase assay (TR-FRET)
Format: biochemical
Conditions: not given
Experimental: The human kinase Mps-1 phosphorylates a biotinylated substrate peptide. Detection of the phosphorylated product is achieved by time-resolved fluorescence resonance energy transfer (TR-FRET) from Europium-labelled anti-phospho-Serine/Threonine antibody as donor to streptavidin labelled with cross-linked allophycocyanin (SA-XLent) as acceptor. Compounds are tested for their inhibition of the kinase activity.
N-terminally GST-tagged human full length recombinant Mps-1 kinase (purchased from Invitrogen, Karslruhe, Germany, cat. no PV4071) was used. As substrate for the kinase reaction a biotinylated peptide of the amino-acid sequence […] (C-terminus in amide form, purchased from Biosynthan GmbH, Berlin) was used.
The concentration of Mps-1 in the assay was adjusted to the activity of the enzyme lot and was chosen appropriate to have the assay in the linear range, typical enzyme concentrations were in the range of about 1 nM (final conc. in the 5 μl assay volume).
The resulting mixture was incubated 1 h at 22° C. to allow the binding of the phosphorylated peptide to the anti-phospho(Ser/Thr)-Europium-antibody. Subsequently the amount of phosphorylated substrate was evaluated by measurement of the resonance energy transfer from the Europium-labelled anti-phospho(Ser/Thr) antibody to the Streptavidin-XLent.

human kinase Mps-1, sequence (P33981 whole entry): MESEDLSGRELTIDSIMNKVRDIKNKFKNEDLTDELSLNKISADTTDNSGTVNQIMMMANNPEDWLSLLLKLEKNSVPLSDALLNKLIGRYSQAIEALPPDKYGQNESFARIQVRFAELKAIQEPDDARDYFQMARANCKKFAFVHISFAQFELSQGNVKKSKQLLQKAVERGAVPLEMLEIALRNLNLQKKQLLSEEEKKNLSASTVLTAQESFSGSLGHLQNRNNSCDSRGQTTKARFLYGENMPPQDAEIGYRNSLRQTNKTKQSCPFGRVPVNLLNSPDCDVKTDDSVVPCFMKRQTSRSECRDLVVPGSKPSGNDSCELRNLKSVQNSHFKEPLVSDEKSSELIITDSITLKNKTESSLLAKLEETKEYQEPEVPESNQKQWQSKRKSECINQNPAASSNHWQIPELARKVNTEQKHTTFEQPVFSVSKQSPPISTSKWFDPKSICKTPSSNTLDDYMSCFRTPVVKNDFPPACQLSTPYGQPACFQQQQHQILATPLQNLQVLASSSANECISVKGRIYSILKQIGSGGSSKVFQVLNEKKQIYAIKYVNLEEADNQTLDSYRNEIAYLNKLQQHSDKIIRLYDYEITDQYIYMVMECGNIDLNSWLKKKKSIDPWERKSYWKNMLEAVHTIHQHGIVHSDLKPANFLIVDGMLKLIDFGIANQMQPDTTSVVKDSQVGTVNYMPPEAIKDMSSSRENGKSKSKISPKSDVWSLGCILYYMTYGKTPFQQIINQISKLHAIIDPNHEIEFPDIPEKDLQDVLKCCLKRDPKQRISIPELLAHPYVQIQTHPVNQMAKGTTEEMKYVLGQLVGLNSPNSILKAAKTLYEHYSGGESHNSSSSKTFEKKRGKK

`O=C(NC1CC1)c1ccc(-n2cnc3c(NCCC(F)(F)F)cc(Oc4cccc(F)c4F)cc32)cc1` [Example 36, N-cyclopropyl-4-{6-(2,3-difluorophenoxy)-4-[(3,3,3-trifluoropropyl)amino]-1H-benzimidazol-1-yl}benzamide] and `O=C(NC1CC1)c1ccc(-n2cnc3c(NCCC(F)(F)F)cc(Oc4ccccc4)cc32)cc1` [Example 37, N-cyclopropyl-4-{6-phenoxy-4-[(3,3,3-trifluoropropyl)amino]-1H-benzimidazol-1-yl}benzamide] are within 1.5-fold of each other in IC50: 0.4 nM for the first, 0.5 nM for the second.

Same assay, conditions: N-terminally GST-tagged human full length recombinant Mps-1; 10 μM ATP; 1 μM biotinylated peptide substrate; read-out: Mps1 IC50

First: CCNC(=O)c1ccc(-n2cnc3c(NCCC(F)(F)F)cc(-c4ccnn4C)cc32)cc1C [Example 31, N-ethyl-2-methyl-4-{6-(1-methyl-1H-pyrazol-5-yl)-4-[(3,3,3-trifluoropropyl)amino]-1H-benzimidazol-1-yl}benzamide]
Second: CNC(=O)c1ccc(-n2cnc3c(NCCC(F)(F)F)cc(-c4ccnn4C)cc32)cc1C [Example 32, N, 2-dimethyl-4-{6-(1-methyl-1H-pyrazol-5-yl)-4-[(3,3,3-trifluoropropyl)amino]-1H-benzimidazol-1-yl}benzamide]
The IC50 of the first is 1.6-fold higher: 33 nM for the first, 20.2 nM for the second.

Compared with `COc1ccc(Oc2cc(NCCC(F)(F)F)c3ncn(-c4ccc(C(=O)NC5CC5)c(C)c4)c3c2)cc1F` [Example 33, N-cyclopropyl-4-{6-(3-fluoro-4-methoxyphenoxy)-4-[(3,3,3-trifluoropropyl)amino]-1H-benzimidazol-1-yl}-2-methylbenzamide], `CNC(=O)c1ccc(-n2cnc3c(NCCC(F)(F)F)cc(Oc4ccc(OC)c(F)c4)cc32)cc1C` [Example 35, 4-{6-(3-Fluoro-4-methoxyphenoxy)-4-[(3,3,3-trifluoropropyl)amino]-1H-benzimidazol-1-yl}-N,2-dimethylbenzamide] is 5.6-fold higher in IC50: 0.7 nM for the first, 3.9 nM for the second.

Compared with `CCNC(=O)c1ccc(-n2cnc3c(NCCC(F)(F)F)cc(Oc4ccc(OC)c(F)c4)cc32)cc1C` [Example 34, N-ethyl-4-{6-(3-fluoro-4-methoxyphenoxy)-4-[(3,3,3-trifluoropropyl)amino]-1H-benzimidazol-1-yl}-2-methylbenzamide], `CCNC(=O)c1ccc(-n2cnc3c(NCCC(F)(F)F)cc(Oc4ccccc4OC)cc32)cc1C` [Example 40, N-ethyl-4-{6-(2-methoxyphenoxy)-4-[(3,3,3-trifluoropropyl)amino]-1H-benzimidazol-1-yl}-2-methylbenzamide] is 10-fold higher in IC50: 5.8 nM for the first, 58.2 nM for the second.

Going from `COc1ccc(Oc2cc(NCCC(F)(F)F)c3ncn(-c4ccc(C(=O)NC5CC5)cc4)c3c2)cc1F` [Example 38, N-cyclopropyl-4-{6-(3-fluoro-4-methoxyphenoxy)-4-[(3,3,3-trifluoropropyl)amino]-1H-benzimidazol-1-yl}benzamide] to `Cc1cc(-n2cnc3c(NCCC(F)(F)F)cc(Oc4ccc(O)cc4)cc32)ccc1C(=O)NC1CC1` [Example 50, N-cyclopropyl-4-{6-(4-hydroxyphenoxy)-4-[(3,3,3-trifluoropropyl)amino]-1H-benzimidazol-1-yl}-2-methylbenzamide], the IC50 rises from 0.4 nM to 1.1 nM (2.8-fold).

Going from `CNC(=O)c1ccc(-n2cnc3c(NCCC(F)(F)F)cc(Oc4ccccc4OC)cc32)cc1C` [Example 39, 4-{6-(2-Methoxyphenoxy)-4-[(3,3,3-trifluoropropyl)amino]-1H-benzimidazol-1-yl}-N, 2-dimethylbenzamide] to `COc1ccccc1Oc1cc(NCCC(F)(F)F)c2ncn(-c3ccc(C(=O)NC4CC4)c(C)c3)c2c1` [Example 41, N-cyclopropyl-4-{6-(2-methoxyphenoxy)-4-[(3,3,3-trifluoropropyl)amino]-1H-benzimidazol-1-yl}-2-methylbenzamide], the IC50 falls from 43.3 nM to 10.1 nM (4.3-fold). The second is the more potent here.

`CNC(=O)c1ccc(-n2cnc3c(NCC4CCOCC4)cc(Oc4ccc(OC)c(F)c4)cc32)cc1C` [Example 42, 4-{6-(3-Fluoro-4-methoxyphenoxy)-4-[(tetrahydro-2H-pyran-4-ylmethyl)amino]-1H-benzimidazol-1-yl}-N,2-dimethylbenzamide] and `CCNC(=O)c1ccc(-n2cnc3c(NCC4CCOCC4)cc(Oc4ccc(OC)c(F)c4)cc32)cc1C` [Example 43, N-ethyl-4-{6-(3-fluoro-4-methoxyphenoxy)-4-[(tetrahydro-2H-pyran-4-ylmethyl)amino]-1H-benzimidazol-1-yl}-2-methylbenzamide] are within 1.5-fold of each other in IC50: 4.9 nM for the first, 4 nM for the second.

Going from `COc1ccc(Oc2cc(NCC3CCOCC3)c3ncn(-c4ccc(C(=O)NC5CC5)c(C)c4)c3c2)cc1F` [Example 44, N-cyclopropyl-4-{6-(3-fluoro-4-methoxyphenoxy)-4-[(tetrahydro-2H-pyran-4-ylmethyl)amino]-1H-benzimidazol-1-yl}-2-methylbenzamide] to `Cc1cc(-n2cnc3c(NCCC(F)(F)F)cc(Oc4ccccc4O)cc32)ccc1C(=O)NC1CC1` [Example 54, N-cyclopropyl-4-{6-(2-hydroxyphenoxy)-4-[(3,3,3-trifluoropropyl)amino]-1H-benzimidazol-1-yl}-2-methylbenzamide], the IC50 falls from 0.7 nM to 0.2 nM (3.5-fold). The second is the more potent here.

Going from `Cc1cc(-n2cnc3c(NCCC(F)(F)F)cc(Oc4ccc(OCc5ccccc5)cc4)cc32)ccc1C(=O)NC1CC1` [Example 45, 4-{6-[4-(Benzyloxy)phenoxy]-4-[(3,3,3-trifluoropropyl)amino]-1H-benzimidazol-1-yl}-N-cyclopropyl-2-methylbenzamide] to `CNC(=O)c1ccc(-n2cnc3c(NCCC(F)(F)F)cc(Oc4ccc(OCc5ccccc5)cc4)cc32)cc1C` [Example 47, 4-{6-[4-(Benzyloxy)phenoxy]-4-[(3,3,3-trifluoropropyl)amino]-1H-benzimidazol-1-yl}-N,2-dimethylbenzamide], the IC50 rises from 6.7 nM to 100 nM (15-fold).

Compared with `CCNC(=O)c1ccc(-n2cnc3c(NCCC(F)(F)F)cc(Oc4ccc(OCc5ccccc5)cc4)cc32)cc1C` [Example 46, 4-{6-[4-(Benzyloxy)phenoxy]-4-[(3,3,3-trifluoropropyl)amino]-1H-benzimidazol-1-yl}-N-ethyl-2-methylbenzamide], `CCNC(=O)c1ccc(-n2cnc3c(NCCC(F)(F)F)cc(Oc4ccc(O)cc4)cc32)cc1C` [Example 49, N-ethyl-4-{6-(4-hydroxyphenoxy)-4-[(3,3,3-trifluoropropyl)amino]-1H-benzimidazol-1-yl}-2-methylbenzamide] is 18-fold lower in IC50: 100 nM for the first, 5.5 nM for the second.

Compared with `CNC(=O)c1ccc(-n2cnc3c(NCCC(F)(F)F)cc(Oc4ccc(O)cc4)cc32)cc1C` [Example 48, 4-{6-(4-Hydroxyphenoxy)-4-[(3,3,3-trifluoropropyl)amino]-1H-benzimidazol-1-yl}-N,2-dimethylbenzamide], `CNC(=O)c1ccc(-c2cc(NCCC(F)(F)F)c3ncn(-c4ccc(C(=O)NC5CC5)c(C)c4)c3c2)cc1C` [Example 52, 4-{1-[4-(Cyclopropylcarbamoyl)-3-methylphenyl]-4-[(3,3,3-trifluoropropyl)amino]-1H-benzimidazol-6-yl}-N,2-dimethylbenzamide] is 6.2-fold lower in IC50: 5.6 nM for the first, 0.9 nM for the second. The second is the more potent here.

First: Cc1cc(-c2cc(NCCC(F)(F)F)c3ncn(-c4ccc(C(=O)NC5CC5)c(C)c4)c3c2)ccc1C(=O)NC1CC1 [Example 51, 4,4′-{4-[(3,3,3-Trifluoropropyl)amino]-1H-benzimidazole-1,6-diyl}bis(N-cyclopropyl-2-methylbenzamide)]
Second: CCNC(=O)c1ccc(-c2cc(NCCC(F)(F)F)c3ncn(-c4ccc(C(=O)NC5CC5)c(C)c4)c3c2)cc1C [Example 53, 4-{1-[4-(Cyclopropylcarbamoyl)-3-methylphenyl]-4-[(3,3,3-trifluoropropyl)amino]-1H-benzimidazol-6-yl}-N-ethyl-2-methylbenzamide]
The IC50 of the first is 2.1-fold lower: 0.9 nM for the first, 1.9 nM for the second.
